From patent publication US11964941B2, “5-Bromo-indirubins” (City of Hope, priority 2014, dated 2024)
Like-named read-outs stand apart in the source and are kept apart here. One block for each compound: values may come before it.

What was measured:
ABL1 (T315I) = ABL1 (T315I) (Homo sapiens, UniProt P00519, T315I); assay: Kinase profiling in vitro, ABL1 (T315I); type: biochemical; conditions: recombinant ABL1 (T315I), 33P-ATP, 120 min
Method: (§1) The kinase assays were performed with recombinant proteins. Briefly, proteins, freshly prepared substrates and ^33P-ATP (specific activity 0.01 μCi/μl final) were mixed in reaction buffer (20 mM HEPES pH 7.5, 10 mM MgCl2, 1 mM EGTA, 0.02% Brij35, 0.02 mg/ml BSA, 0.1 mM Na3VO4, 2 mM DTT) in the presence of DMSO as control or 5IN-1NH1s. The mixtures were reacted for 120 min at room temperature. Samples were transferred onto P81 ion exchange paper and filters were extensively washed with 0.75% phosphoric acid. The radioactivities were monitored. IC50 values were determined using GraphPad Prism software.

AKT1 = AKT1 (Homo sapiens, UniProt P31749); assay: Kinase profiling in vitro, AKT1; type: biochemical; conditions: recombinant AKT1, 33P-ATP, 120 min
Sequence of AKT1 (P31749 whole entry, species assumed): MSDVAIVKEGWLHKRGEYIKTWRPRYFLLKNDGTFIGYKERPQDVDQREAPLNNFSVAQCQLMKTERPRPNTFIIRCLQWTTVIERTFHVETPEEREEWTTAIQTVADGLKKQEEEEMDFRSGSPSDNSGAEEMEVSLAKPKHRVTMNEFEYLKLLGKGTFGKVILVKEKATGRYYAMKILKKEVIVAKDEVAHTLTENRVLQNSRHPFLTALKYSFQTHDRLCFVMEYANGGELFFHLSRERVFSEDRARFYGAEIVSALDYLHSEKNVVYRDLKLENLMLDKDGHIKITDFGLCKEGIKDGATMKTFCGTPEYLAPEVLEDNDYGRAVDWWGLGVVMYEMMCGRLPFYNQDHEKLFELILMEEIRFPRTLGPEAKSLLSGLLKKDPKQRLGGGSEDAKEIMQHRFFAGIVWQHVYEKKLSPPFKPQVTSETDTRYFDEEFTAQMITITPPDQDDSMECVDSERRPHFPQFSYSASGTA
Method: as §1

MV4-11 AML cells = assay: MTS cell viability, MV4-11 AML cells (FLT3-ITD); type: cell-based, human; conditions: 48 h, read-out: IC50 for 50% inhibition of viability
Method: (§2) MTS assays were performed for cell viability. Human cancer cells were seeded in 96-well plates (2500 cells/well for solid tumors, 5000 cells/well for blood tumors), incubated overnight at 37 C in 5% CO2, and exposed to 5IN-1NH1 or 5IN-1NH1s in a dose-dependent manner for 48 h. See FIGS. 1A-1B, 2A-2B, 3, 4A-4B, and 6A-6B. Dimethyl sulfoxide (DMSO) was used as the vehicle control. Viable cell numbers were determined by tetrazolium conversion to its formazan dye and absorbance was measured at 490 nm using an automated ELISA plate reader. Each experiment was performed in quadruplicate. IC50 values were determined using CalcuSyn software (BIOSOFT®, Cambridge GB).
(§3) Compound (1289) inhibits viabilities of MV4-11 and MOLM13 AML cells that harbor an internal tandem duplication (ITD) mutation. MTS assays were performed for cell viability. Human MV4-11 and MOLM13 AML cells (5000/well) were seeded in 96-well plates, incubated overnight at 37° C. in 5% CO2, and exposed to compound (1289) in a dose-dependent manner for 48 h. Dimethyl sulfoxide (DMSO) was used as the vehicle control. Viable cell numbers were determined by tetrazolium conversion to its formazan dye and absorbance was measured at 490 nm using an automated ELISA plate reader. Each experiment was performed in quadruplicate. IC50 values were determined using CalcuSyn software.

[1] = tested on: MDA-MB-231 breast cancer cells; assay: MTS cell viability, MDA-MB-231 breast cancer cells; type: cell-based, human; conditions: 48 h, read-out: IC50 for 50% inhibition of viability
Method: as §2

[2] = tested on: SKOV3 ovarian cancer cells; assay: MTS cell viability, SKOV3 ovarian cancer cells; type: cell-based, human; conditions: 48 h, read-out: IC50 for 50% inhibition of viability
Method: as §2

FMS = FMS (Homo sapiens, UniProt P07333); assay: In vitro kinase assay, recombinant FMS; type: biochemical; conditions: 33P-ATP, 120 min
Sequence of FMS (P07333 20-972, species assumed): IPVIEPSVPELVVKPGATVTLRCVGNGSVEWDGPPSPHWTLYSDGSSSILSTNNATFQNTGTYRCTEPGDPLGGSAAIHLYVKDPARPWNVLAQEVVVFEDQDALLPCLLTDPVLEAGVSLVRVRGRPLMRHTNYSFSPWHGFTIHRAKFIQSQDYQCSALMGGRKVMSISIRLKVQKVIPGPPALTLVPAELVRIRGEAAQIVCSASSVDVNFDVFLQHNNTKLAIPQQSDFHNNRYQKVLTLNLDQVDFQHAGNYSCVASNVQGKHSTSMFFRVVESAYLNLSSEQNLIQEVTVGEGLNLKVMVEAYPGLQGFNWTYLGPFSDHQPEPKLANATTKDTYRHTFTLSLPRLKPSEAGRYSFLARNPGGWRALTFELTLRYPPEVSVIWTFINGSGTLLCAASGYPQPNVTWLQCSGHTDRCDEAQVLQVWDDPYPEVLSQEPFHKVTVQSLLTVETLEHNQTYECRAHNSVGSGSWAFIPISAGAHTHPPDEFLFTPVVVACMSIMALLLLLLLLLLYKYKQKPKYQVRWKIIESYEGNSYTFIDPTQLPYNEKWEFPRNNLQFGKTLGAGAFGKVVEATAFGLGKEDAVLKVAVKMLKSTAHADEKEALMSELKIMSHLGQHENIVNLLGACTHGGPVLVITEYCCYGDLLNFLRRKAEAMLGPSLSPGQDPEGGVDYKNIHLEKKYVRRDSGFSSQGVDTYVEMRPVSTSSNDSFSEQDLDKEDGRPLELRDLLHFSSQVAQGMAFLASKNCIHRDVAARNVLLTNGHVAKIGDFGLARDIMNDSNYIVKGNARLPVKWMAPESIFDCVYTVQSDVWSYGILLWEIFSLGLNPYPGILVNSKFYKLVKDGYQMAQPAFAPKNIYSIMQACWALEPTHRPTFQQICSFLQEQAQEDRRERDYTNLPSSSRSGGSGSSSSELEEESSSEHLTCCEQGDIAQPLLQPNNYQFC
Method: (§4) Compound (1289) inhibits activities of FMS, PDGFR α, PDGFR β and c-KIT in vitro. The kinase assays were performed with recombinant FMS, PDGFR α, PDGFR β and c-KIT proteins. Briefly, proteins, freshly prepared substrates and ^33P-ATP (specific activity 0.01 μCi/μl final) were mixed in reaction buffer (20 mM HEPES pH 7.5, 10 mM MgCl2, 1 mM EGTA, 0.02% Brij35, 0.02 mg/ml BSA, 0.1 mM Na3VO4, 2 mM DTT) in the presence of DMSO as control or compound (1289). The mixtures were reacted for 120 min at room temperature. Samples were transferred onto P81 ion exchange paper and filters were extensively washed with 0.75% phosphoric acid. The radioactivities were monitored.
as §1, with “recombinant class III receptor tyrosine kinase family” for “recombinant”

CDK2/cyclin A = CDK2/cyclin A (Homo sapiens, UniProt P24941); assay: Kinase profiling in vitro, CDK2/cyclin A; type: biochemical; conditions: recombinant CDK2/cyclin A, 33P-ATP, 120 min
Method: as §1

Aurora A = Aurora A (Homo sapiens, UniProt O14965); assay: Kinase profiling in vitro, Aurora A; type: biochemical; conditions: recombinant Aurora A, 33P-ATP, 120 min
Method: as §1

GSK3β = GSK3β (Homo sapiens, UniProt P49841); assay: Kinase profiling in vitro, GSK3β; type: biochemical; conditions: recombinant GSK3β, 33P-ATP, 120 min
Method: as §1

FLT3 (D835Y) = FLT3 (D835Y) (Homo sapiens, UniProt P36888, D835Y); assay: In vitro kinase assay, recombinant FLT3 (D835Y); type: biochemical; conditions: 33P-ATP, 120 min
Method: as §1, with “recombinant class III receptor tyrosine kinase family” for “recombinant”
as §1, with “Kinase” for “The kinase”, “FLT3, mutated FLT3-ITD and D835I mutant FLT3 kinases.” for “proteins.”, “compound (1289).” for “5IN-1NH1s.”

c-KIT = c-KIT (Homo sapiens, UniProt P10721); assay: In vitro kinase assay, recombinant c-KIT; type: biochemical; conditions: 33P-ATP, 120 min
Sequence of c-KIT (P10721 26-976): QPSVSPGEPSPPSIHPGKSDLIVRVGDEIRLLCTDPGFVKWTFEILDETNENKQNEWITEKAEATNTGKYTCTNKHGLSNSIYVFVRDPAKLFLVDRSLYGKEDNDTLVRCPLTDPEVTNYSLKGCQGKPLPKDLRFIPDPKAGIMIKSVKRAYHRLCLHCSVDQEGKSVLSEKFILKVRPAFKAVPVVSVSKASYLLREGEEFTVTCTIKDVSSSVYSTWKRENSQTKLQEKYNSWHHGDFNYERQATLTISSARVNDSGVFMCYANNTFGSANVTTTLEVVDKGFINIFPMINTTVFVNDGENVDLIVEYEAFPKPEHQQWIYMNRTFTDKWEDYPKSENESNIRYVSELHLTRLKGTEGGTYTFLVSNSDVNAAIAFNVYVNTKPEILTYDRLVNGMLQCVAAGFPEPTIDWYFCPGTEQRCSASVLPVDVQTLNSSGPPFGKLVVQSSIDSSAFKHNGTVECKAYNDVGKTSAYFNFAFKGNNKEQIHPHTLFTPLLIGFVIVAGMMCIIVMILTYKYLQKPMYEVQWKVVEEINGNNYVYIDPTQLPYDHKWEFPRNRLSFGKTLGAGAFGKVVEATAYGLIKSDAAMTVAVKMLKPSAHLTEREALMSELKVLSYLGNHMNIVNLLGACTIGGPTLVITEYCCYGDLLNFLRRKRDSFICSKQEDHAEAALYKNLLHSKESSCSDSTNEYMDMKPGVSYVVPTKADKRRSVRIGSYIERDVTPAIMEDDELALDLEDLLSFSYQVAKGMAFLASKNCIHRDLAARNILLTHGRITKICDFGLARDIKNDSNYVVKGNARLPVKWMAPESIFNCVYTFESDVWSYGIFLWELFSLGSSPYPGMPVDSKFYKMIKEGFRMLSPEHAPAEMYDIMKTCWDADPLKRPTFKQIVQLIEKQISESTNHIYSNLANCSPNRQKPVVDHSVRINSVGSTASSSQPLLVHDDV
Method: as §4
as §1, with “recombinant class III receptor tyrosine kinase family” for “recombinant”

FLT3 (ITD) = FLT3 (ITD) (Homo sapiens, UniProt P36888); assay: In vitro kinase assay, recombinant FLT3 (ITD); type: biochemical; conditions: 33P-ATP, 120 min
Method: as §1, with “recombinant class III receptor tyrosine kinase family” for “recombinant”
as §1, with “Kinase” for “The kinase”, “FLT3, mutated FLT3-ITD and D835I mutant FLT3 kinases.” for “proteins.”, “compound (1289).” for “5IN-1NH1s.”

PDGFR α = PDGFR α (Homo sapiens, UniProt P16234); assay: In vitro kinase assay, recombinant PDGFR α; type: biochemical; conditions: 33P-ATP, 120 min
Sequence of PDGFR α (P16234 24-1089, species assumed): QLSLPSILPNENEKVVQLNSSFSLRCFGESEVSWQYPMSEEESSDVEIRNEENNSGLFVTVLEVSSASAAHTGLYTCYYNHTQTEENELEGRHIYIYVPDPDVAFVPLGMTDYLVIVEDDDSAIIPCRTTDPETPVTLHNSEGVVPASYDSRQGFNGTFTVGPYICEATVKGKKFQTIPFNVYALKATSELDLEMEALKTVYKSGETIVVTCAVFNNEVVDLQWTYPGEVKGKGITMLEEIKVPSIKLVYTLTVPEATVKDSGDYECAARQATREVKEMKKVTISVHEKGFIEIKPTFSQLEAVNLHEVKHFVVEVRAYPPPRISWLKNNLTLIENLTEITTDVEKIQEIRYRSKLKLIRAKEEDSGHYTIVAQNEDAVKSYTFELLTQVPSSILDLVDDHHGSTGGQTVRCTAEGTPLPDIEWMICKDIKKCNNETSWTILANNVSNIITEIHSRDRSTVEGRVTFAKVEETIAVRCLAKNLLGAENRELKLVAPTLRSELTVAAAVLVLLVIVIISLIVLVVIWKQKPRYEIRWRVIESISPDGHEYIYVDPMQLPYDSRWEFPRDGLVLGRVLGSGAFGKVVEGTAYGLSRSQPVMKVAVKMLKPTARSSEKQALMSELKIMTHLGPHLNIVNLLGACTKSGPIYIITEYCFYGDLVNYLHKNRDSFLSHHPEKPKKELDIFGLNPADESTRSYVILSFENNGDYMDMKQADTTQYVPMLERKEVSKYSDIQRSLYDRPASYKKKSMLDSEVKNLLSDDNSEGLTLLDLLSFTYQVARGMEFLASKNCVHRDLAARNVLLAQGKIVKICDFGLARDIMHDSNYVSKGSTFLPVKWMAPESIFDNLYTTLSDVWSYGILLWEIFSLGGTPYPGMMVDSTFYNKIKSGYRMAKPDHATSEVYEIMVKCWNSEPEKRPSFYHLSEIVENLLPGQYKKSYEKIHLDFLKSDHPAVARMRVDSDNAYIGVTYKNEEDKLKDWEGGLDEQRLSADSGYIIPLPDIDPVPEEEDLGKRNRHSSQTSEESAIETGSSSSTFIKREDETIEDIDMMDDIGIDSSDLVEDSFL
Method: as §4
as §1, with “recombinant class III receptor tyrosine kinase family” for “recombinant”

MOLM13 AML cells = assay: MTS cell viability, MOLM13 AML cells (FLT3-ITD); type: cell-based, human; conditions: read-out: IC50 for 50% inhibition of viability
Method: as §2, §3

ABL1 = ABL1 (Homo sapiens, UniProt P00519); assay: Kinase profiling in vitro, ABL1; type: biochemical; conditions: recombinant ABL1, 33P-ATP, 120 min
Method: as §1

A549 lung cancer cells = assay: MTS cell viability, A549 lung cancer cells; type: cell-based, human; conditions: 48 h, read-out: IC50 for 50% inhibition of viability
Method: as §2

PDGFR β = PDGFR β (Homo sapiens, UniProt P09619); assay: In vitro kinase assay, recombinant PDGFR β; type: biochemical; conditions: 33P-ATP, 120 min
Sequence of PDGFR β (P09619 33-1106, species assumed): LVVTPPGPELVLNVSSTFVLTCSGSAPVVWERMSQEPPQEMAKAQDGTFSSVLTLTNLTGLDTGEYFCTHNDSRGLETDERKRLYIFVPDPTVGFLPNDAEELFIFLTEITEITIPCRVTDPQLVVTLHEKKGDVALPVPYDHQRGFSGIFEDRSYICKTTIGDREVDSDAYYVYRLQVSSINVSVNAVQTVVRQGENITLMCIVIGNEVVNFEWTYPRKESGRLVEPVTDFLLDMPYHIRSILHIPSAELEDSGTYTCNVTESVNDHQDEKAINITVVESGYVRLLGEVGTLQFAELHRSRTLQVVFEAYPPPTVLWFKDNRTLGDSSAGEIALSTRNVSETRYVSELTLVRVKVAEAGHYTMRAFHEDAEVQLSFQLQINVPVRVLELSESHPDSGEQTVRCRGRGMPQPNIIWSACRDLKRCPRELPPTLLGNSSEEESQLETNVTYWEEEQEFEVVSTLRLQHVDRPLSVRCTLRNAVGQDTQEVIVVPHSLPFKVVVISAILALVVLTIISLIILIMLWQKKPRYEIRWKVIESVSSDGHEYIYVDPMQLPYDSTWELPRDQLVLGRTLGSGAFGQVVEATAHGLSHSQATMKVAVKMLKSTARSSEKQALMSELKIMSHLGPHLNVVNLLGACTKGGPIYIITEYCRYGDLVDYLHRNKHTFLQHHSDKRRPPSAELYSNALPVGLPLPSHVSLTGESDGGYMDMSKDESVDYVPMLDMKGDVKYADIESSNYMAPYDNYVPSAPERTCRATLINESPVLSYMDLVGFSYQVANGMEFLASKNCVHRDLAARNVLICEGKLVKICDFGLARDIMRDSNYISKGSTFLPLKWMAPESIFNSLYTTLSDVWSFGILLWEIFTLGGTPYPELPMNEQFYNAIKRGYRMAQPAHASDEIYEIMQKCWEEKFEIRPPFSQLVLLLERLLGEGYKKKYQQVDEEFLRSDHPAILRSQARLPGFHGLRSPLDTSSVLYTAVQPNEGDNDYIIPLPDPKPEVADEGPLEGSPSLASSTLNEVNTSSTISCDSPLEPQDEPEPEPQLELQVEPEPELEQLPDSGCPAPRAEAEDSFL
Method: as §4
as §1, with “recombinant class III receptor tyrosine kinase family” for “recombinant”

IGF1R = IGF1R (Homo sapiens, UniProt P08069); assay: Kinase profiling in vitro, IGF1R; type: biochemical; conditions: recombinant IGF1R, 33P-ATP, 120 min
Method: as §1

KDR/vEGFR2 = KDR/vEGFR2 (Homo sapiens, UniProt P35968); assay: Kinase profiling in vitro, KDR/vEGFR2; type: biochemical; conditions: recombinant KDR/vEGFR2, 33P-ATP, 120 min
Method: as §1

JAK2 = JAK2 (Homo sapiens, UniProt O60674); assay: Kinase profiling in vitro, JAK2; type: biochemical; conditions: recombinant JAK2, 33P-ATP, 120 min
Method: as §1

FLT3 [3] = target: FLT3 (Homo sapiens, UniProt P36888); assay: In vitro kinase assay, recombinant FLT3; type: biochemical; conditions: recombinant FLT3, 33P-ATP, 120 min
Method: as §1, with “recombinant class III receptor tyrosine kinase family” for “recombinant”
as §1, with “Kinase” for “The kinase”, “FLT3, mutated FLT3-ITD and D835I mutant FLT3 kinases.” for “proteins.”, “compound (1289).” for “5IN-1NH1s.”

FLT3 [4] = assay: In vitro kinase assay, recombinant FLT3; type: biochemical; conditions: recombinant class III receptor tyrosine kinase family proteins
Method: as §1, with “recombinant class III receptor tyrosine kinase family” for “recombinant”
as §1, with “Kinase” for “The kinase”, “FLT3, mutated FLT3-ITD and D835I mutant FLT3 kinases.” for “proteins.”, “compound (1289).” for “5IN-1NH1s.”

KCL22 CML cells = assay: MTS cell viability, KCL22 CML cells; type: cell-based, human; conditions: 48 h, read-out: IC50 for 50% inhibition of viability
Method: as §2

BRAF = BRAF (Homo sapiens, UniProt P15056); assay: Kinase profiling in vitro, BRAF; type: biochemical; conditions: recombinant BRAF, 33P-ATP, 120 min
Method: as §1

[5] = tested on: DU145 prostate cancer cells; assay: MTS cell viability, DU145 prostate cancer cells; type: cell-based, human; conditions: 48 h, read-out: IC50 for 50% inhibition of viability
Method: as §2

[6] = tested on: T315I ABL1 mutant KCL22 CML cells; assay: MTS cell viability, T315I ABL1 mutant KCL22 CML cells; type: cell-based, human; conditions: T315I ABL1 mutant KCL22 CML cells, MTS, 48 h; read-out: IC50 for 50% inhibition of viability
Method: as §2
Human DU145 prostate cancer, A2058 melanoma, SKOV3 ovarian cancer and T315I ABL1 mutant KCL22 CML cells were seeded in 96-well plates (2500 cells/well for solid tumors, 5000 cells/well for blood tumors), incubated overnight at 37° C. in 5% CO2, and exposed to 5IN-6NC1, 5IN-1NH1, 5IN-6NNC6, or 5IN-6NNC7 in a dose-dependent manner for 48 h. Dimethyl sulfoxide (DMSO) was used as the vehicle control. Viable cell numbers were determined by tetrazolium conversion to its formazan dye and absorbance was measured at 490 nm using an automated ELISA plate reader. Each experiment was performed in quadruplicate. IC50 values were determined using CalcuSyn software.

c-Src = c-Src (Homo sapiens, UniProt P12931); assay: Kinase profiling in vitro, c-Src; type: biochemical; conditions: recombinant c-Src, 33P-ATP, 120 min
Sequence of c-Src (P12931 whole entry, species assumed): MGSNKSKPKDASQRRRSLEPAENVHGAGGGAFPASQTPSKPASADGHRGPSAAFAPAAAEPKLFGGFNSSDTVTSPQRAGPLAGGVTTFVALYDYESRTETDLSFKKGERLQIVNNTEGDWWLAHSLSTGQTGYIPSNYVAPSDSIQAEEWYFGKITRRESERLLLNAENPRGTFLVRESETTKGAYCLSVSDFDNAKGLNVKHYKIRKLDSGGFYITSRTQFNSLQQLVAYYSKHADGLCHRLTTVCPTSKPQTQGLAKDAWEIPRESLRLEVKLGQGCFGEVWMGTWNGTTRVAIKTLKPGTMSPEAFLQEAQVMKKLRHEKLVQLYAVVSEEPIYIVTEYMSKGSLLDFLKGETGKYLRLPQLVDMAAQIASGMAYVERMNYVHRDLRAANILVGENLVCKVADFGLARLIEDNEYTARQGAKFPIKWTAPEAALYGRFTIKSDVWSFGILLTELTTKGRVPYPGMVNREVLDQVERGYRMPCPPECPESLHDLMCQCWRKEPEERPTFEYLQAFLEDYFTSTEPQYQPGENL
Method: as §1

A2058 melanoma cells = assay: MTS cell viability, A2058 melanoma cells; type: cell-based, human; conditions: 48 h, read-out: IC50 for 50% inhibition of viability
Method: as §2

MV4-11 AML SQ xenografts = MV4-11 AML SQ xenografts in vivo; parameters: species or system mouse; conditions: NSG mice, 25 mg/kg orally twice daily for 18 days
Method: Human MV4-11 AML cells (5×10^6) were resuspended in serum-free RPMI1640 medium and subcutaneously injected into the flank of 5-6 weeks old NOD/SCID/IL-2rg(ko) (NSG) female mouse. When palpable tumor sizes reached at approximately 100 mm^3, mice were randomly divided into two groups (vehicle=7, treatment=7). Then, compound (1289) was orally administered at 25 mg/kg with vehicle (10% DMSO+30% SOLUTOL®+60% Saline), twice daily for 18 days. Tumor volumes were calculated by the formula 1/2a×b^2, where a is the long diameter, and b is the short diameter. Tumor volumes correlate with tumor weights. The statistical significance of group differences was analyzed using a Student's t-test with the two-tailed distribution. P values less than 0.05 were considered statistically significant.

STAT5 = assay: Western blot, phosphorylation of STAT5 in AML cells; type: cell-based, human; conditions: FLT-ITD mutated AML cells (MV4-11, MOLM13), 4h
Method: (§5) Western blot analyses were performed with specific antibodies. Briefly, human MV4-11 and MOLM13 AML cells were treated with compound (1289) in a dose-dependent manner for 4h. Whole-cell lysates (40 ug) were resolved by SDS-PAGE. Primary phospho-specific antibodies to p-Stat5 and […] were diluted in TBS (pH 7.5) with 5% (w/v) BSA and 0.1% (v/v) Tween-20 over night at 4° C. Primary specific antibodies to Stat5 and […] were diluted in PBS (pH 7.5) with 5% (w/v) nonfat milk and 0.1% (v/v) Tween-20 overnight at 4° C. Horseradish peroxidase-conjugated secondary antibodies were incubated in PBS (pH 7.5) with 5% (w/v) nonfat milk and 0.1% (v/v) Tween-20 for 1 h at room temperature. Positive immuno-reactive proteins were detected using the ECL system.

Erk1/2 = assay: Western blot, phosphorylation of Erk1/2 in AML cells; type: cell-based, human; conditions: FLT-ITD mutated AML cells (MV4-11, MOLM13), 4h
Method: as §5

IC50 (ABL1 (T315I)): 3400 nM | IC50 (AKT1): 327 nM | IC50 (MV4-11 AML cells): 3.7 nM | IC50 [1]: 33 nM | IC50 [2]: 169 nM | IC50 (FMS): 16 nM | IC50 (CDK2/cyclin A): 1.08 nM | IC50 (Aurora A): 217 nM | IC50 (GSK3β): 1.18 nM | IC50 (FLT3 (D835Y)): < 0.5 nM | IC50 (c-KIT): 321 nM | IC50 (FLT3 (ITD)): 1.09 nM | IC50 (PDGFR α): 72.2 nM | IC50 (MOLM13 AML cells; 48 h): 7.5 nM | IC50 (ABL1): 434 nM | IC50 (A549 lung cancer cells): 46.1 nM | IC50 (PDGFR β): 9.1 nM | IC50 (IGF1R): 31.8 nM | IC50 (KDR/vEGFR2): 245 nM | IC50 (JAK2): 169 nM | IC50 (FLT3 [3]): 1.39 nM | selectivity for FLT3 and mutated FLT3 kinases within class III receptor tyrosine kinase family (FLT3 [4]): selectively inhibits | IC50 (BRAF): 7410 nM | IC50 [5]: 44.7 nM | IC50 (c-Src): 13.8 nM | IC50 (A2058 melanoma cells): 88.9 nM
Compound: CNCCO/N=C1/C(=C2/C(=O)Nc3ccc(Br)cc32)Nc2ccccc21 [5IN-1NH1s]
IC50 (KCL22 CML cells): 72.8 nM | IC50 [6]: 52.7 nM

IC50 (MV4-11 AML cells; Homo sapiens): 1.8 nM | IC50 (FMS): 7.6 nM | IC50 (FLT3 (D835Y)): < 0.5 nM | IC50 (c-KIT): 47.7 nM | IC50 (FLT3 (ITD)): 0.56 nM | IC50 (PDGFR α): 13.6 nM | IC50 (MOLM13 AML cells; Homo sapiens, MOLM-13, 48 h): 2.3 nM | IC50 (PDGFR β): 1.2 nM | IC50 (FLT3 [3]): 0.68 nM
Compound: O=C1Nc2ccc(Br)cc2C1=C1Nc2ccccc2C1=NOCCN1CCNCC1 [Compound (1289)]
efficacy in vivo on MV4-11 AML SQ xenografts (MV4-11 AML SQ xenografts): shows efficacy in vivo | phosphorylation of STAT5 (STAT5): blocked phosphorylation | phosphorylation of Erk1/2 (Erk1/2): blocked phosphorylation
